From patent EP3677259A1, “USE OF ARACHIDONYL TRIFLUOROMETHYL KETONE” (Mosaiques Diagnostics And Therapeutics AG, priority 2019, dated 2020)
Like-named read-outs stand apart in the source and are kept apart here.

How the values were obtained:
[1] = system: Ca2+-independent group VI iPLA2; conditions: cited from earlier work
GV sPLA2 = molecular target: T1, GV sPLA2 (Homo sapiens, UniProt P39877); conditions: cited from earlier work
T1 sequence (P39877 21-138): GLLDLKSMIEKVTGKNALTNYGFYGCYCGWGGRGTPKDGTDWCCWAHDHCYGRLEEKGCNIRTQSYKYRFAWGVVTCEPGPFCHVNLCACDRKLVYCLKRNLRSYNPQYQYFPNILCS

GIVA cPLA2 = molecular target: T2, GIVA cPLA2 (Homo sapiens, UniProt P47712); conditions: cited from earlier work
T2 sequence (P47712 1-749): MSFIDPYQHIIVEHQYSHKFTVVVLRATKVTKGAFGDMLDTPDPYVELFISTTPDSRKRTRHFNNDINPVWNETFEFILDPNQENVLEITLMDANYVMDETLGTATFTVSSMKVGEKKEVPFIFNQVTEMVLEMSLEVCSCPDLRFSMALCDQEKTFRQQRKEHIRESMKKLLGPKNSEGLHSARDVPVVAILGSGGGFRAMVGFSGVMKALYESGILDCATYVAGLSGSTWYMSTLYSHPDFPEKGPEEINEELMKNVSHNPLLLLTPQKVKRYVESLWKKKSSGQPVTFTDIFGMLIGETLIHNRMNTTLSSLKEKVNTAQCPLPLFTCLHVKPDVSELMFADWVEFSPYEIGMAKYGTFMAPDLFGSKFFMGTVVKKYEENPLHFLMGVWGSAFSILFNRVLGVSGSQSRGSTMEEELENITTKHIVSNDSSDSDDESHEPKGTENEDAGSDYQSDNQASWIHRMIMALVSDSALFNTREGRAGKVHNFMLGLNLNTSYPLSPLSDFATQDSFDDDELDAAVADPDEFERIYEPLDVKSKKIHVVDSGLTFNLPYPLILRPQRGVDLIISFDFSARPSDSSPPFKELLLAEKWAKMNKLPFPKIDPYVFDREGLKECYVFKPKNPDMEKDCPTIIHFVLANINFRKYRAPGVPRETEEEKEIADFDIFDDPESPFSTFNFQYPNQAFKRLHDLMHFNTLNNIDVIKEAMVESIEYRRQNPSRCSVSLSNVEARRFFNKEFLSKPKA

GVIA iPLA2 = molecular target: T3, GVIA iPLA2 (Homo sapiens, UniProt O60733); conditions: cited from earlier work
T3 sequence (O60733 1-806): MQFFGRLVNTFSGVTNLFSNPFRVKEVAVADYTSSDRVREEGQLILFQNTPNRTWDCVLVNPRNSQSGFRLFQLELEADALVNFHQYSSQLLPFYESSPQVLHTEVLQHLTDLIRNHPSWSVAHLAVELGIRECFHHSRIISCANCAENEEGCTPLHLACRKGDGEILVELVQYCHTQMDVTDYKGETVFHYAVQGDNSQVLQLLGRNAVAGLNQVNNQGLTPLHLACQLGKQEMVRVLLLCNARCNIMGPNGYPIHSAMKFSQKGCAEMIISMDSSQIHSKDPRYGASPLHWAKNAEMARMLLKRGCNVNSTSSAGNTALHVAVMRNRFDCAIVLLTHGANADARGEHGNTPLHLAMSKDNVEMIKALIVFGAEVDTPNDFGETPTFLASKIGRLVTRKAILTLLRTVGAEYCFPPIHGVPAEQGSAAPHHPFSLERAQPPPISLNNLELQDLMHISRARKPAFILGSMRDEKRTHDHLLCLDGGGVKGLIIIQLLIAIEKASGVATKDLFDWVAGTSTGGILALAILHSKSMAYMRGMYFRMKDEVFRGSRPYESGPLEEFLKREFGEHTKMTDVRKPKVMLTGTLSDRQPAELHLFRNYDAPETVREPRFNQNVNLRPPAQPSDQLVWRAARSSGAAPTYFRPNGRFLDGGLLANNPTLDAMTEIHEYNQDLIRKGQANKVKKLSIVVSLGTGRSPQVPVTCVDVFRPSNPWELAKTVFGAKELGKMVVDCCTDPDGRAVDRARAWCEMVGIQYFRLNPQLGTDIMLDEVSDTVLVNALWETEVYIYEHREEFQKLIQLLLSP

HAoSMCs = assay: Relative mRNA expression of osteogenic markers MSX2, CBFA1, ALPL in HAoSMCs; assay type: cell-based, human; conditions: 10 µM arachidonic acid, 24 hours, vs. control
Experimental: Primary HAoSMCs were cultured in Waymouth's MB 752/1 medium and Ham's F-12 nutrient mixture (1:1, Gibco, Life Technologies) supplemented with 10% FBS (Gibco, Life Technologies) and 100 U/ml penicillin and 100 μg/ml streptomycin. HAoSMCs were grown to confluency and used in all experiments from passages 4 to 10. Calcification was induced with 3 mM sodium phosphate buffer as calcification medium. Treatment was performed over a period of 11 days. Figs. 1C-E are diagrams indicating relative mRNA expression in HAoSMCs of MSX2 (Fig. 1C), CBFA1 (Fig. 1D) and ALPL (Fig. 1E) as scatter dot plots and as arithmetic means ± SEM (n=6; arbitrary units, a.u.). mRNA expression was determined following treatment of the HAoSMCs for 24 hours with control or with 2 mM β-glycerophosphate (Pi) without or with additional treatment with 10 μM AACOCF3. **(p<0.01), ***(p<0.001) statistically significant vs. control treated […]<0.001) statistically significant vs. HAoSMCs treated with Pi alone. […] Conditions were as above (for Fig 2), namely primary HAoSMCs were cultured in Waymouth's MB 752/1 medium and Ham's F-12 nutrient mixture (1:1, Gibco, Life Technologies) supplemented with 10% FBS (Gibco, Life Technologies) and 100 U/ml penicillin and 100 μg/ml streptomycin. HAoSMCs were grown to confluency and used in all experiments from passages 4 to 10. […]

human platelets = conditions: read-out: IC50, arachidonic acid mobilization, cited from earlier work

| Molecule | GV sPLA2 % Inhibition (GV sPLA2) [%] | GIVA cPLA2 % Inhibition (GIVA cPLA2) [%] | GIVA cPLA2 X1(50) (GIVA cPLA2) | GVIA iPLA2 % Inhibition (GVIA iPLA2) [%] | other results |
| --- | --- | --- | --- | --- | --- |
| Palmityl trifluoromethylketone [PACOCF3] |  |  |  |  | IC50 [1]: 3800 nM |
| O=C(O)CCCOC(=O)C(=O)CCCc1ccc(-c2ccccc2)cc1 [17g] | <25 | > 95 | 0.0065 ± 0.002 |  |  |
| CCCCCCCCCCCCCCC(=O)C(=O)O [12e] | <25 |  |  | <25 |  |
| CC(C)(C)OC(=O)CCCOC(=O)C(=O)CCCCc1ccccc1 [16c] | <25 | <25 |  | <25 |  |
| O=C(O)CCCOC(=O)C(=O)CCCCc1ccc(-c2ccccc2)cc1 [17d] | <25 | >95 | 0.00068 ± 0.00007 | <25 |  |
| CCCCC/C=C\C/C=C\C/C=C\C/C=C\CCCC(=O)O [Arachidonic acid, arachidonic acid] |  |  |  |  | osteoinductive signaling (MSX2, CBFA1, ALPL relative mRNA expression) (HAoSMCs): induces osteoinductive signaling |
| O=C(O)CCCCOC(=O)C(=O)CCCCc1ccc(-c2ccccc2)cc1 [17f] | <25 | > 95 | 0.000078 ± 0.00001 |  |  |
| CCOC(=O)CCCOC(=O)C(=O)CCCCc1ccccc1 [compound 19] | <25 |  |  | <25 |  |
| CCCCCCCCCCCCCCC(O)C(=O)OCCCC(=O)O (centres unmarked) [compound 20] |  | <25 |  | <25 |  |
| CCCCCCCCCCOc1ccc(OCC(=O)Cn2cc(C(=O)OC)c3cc(C(=O)O)ccc32)cc1 [CAY10502, 1-[3-(4-decoxyphenoxy)-2-oxopropyl]-3-methoxycarbonylindole-5-carboxylic acid] |  |  |  |  | IC50 (human platelets; A23187-stimulated human platelets): 570 nM; IC50 (human platelets; TPA-stimulated human platelets): 0.9 nM |
